Key:
Format in all cases: functional
[1] = system: Mycobacterium tuberculosis; assay: Antitubercular activity against Mycobacterium tuberculosis N1640S mutant assessed as reduction in microbial growth by microplate alamar blue assay
[2] = system: Mycobacterium tuberculosis; assay: Antitubercular activity against Mycobacterium tuberculosis N1640K mutant assessed as reduction in microbial growth by microplate alamar blue assay
[3] = system: Mycobacterium tuberculosis; assay: Antitubercular activity against Mycobacterium tuberculosis D1644G mutant assessed as reduction in microbial growth by microplate alamar blue assay
[4] = system: Mycobacterium tuberculosis; assay: Antitubercular activity against Mycobacterium tuberculosis A1667V mutant assessed as reduction in microbial growth by microplate alamar blue assay

Structure (SMILES)	MIC [1] [µg/mL]	MIC [2] [µg/mL]	MIC [3] [µg/mL]	MIC [4] [µg/mL]
CN1CN(C2CCCC2)Cc2c(O)ccc3oc(-c4ccc(O)cc4)c(c23)C1=O	>64	>64	>64	32
CN1CN(CC2CC2)Cc2c(O)ccc3oc(-c4ccc(O)cc4)c(c23)C1=O	>64	>64	>64	>64
CN1CN(CC2CCC2)Cc2c(O)ccc3oc(-c4ccc(O)cc4)c(c23)C1=O	>64	>64	>64	8

Reference: ChEMBL document CHEMBL6103639, “Structure-Based Development of 3,4-Fused Tricyclic Benzofuran Derivatives as Polyketide Synthase 13 Inhibitors with Negligible hERG Inhibition” (J Med Chem, 2025)
